Patent US5043166A, “Liposome/anthraquinone drug composition and method” (priority 1989, dated 1991)
Like-named read-outs stand apart in the source and are kept apart here.

What was measured:
[1] = organ distribution of DXR after administration free or in liposomes; format: in vivo
[2] = single injection survival with graded doses of F-DXR and L-DXR; set-up: species or system mice; conditions: mouse, in vivo, iv, 90 days
Method: L-DXR was prepared as in Example I, to final DXR concentrations of 1, 1.5, 2, and 2.5 mg/ml, with corresponding phospholipid concentrations of 16, 24, 32, and 40 μmole/ml, respectively, and cholesterol concentrations of 6.4, 9.6, 12.8, and 16 μmole/ml, respectively. Free DXR (F-DXR) was prepared in sterile, pyrogen-free physiologic saline solution to final concentrations of 1, 1.5, 2, and 2.5 mg/ml.
BALB/c male mice were treated intravenously with 4 different doses of F-DXR and L-DXR: 10, 15, 20, and 25 mg/kg, by administering about 1% total animal weight of the corresponding F-DXR or L-DXR formulation. […] No mortality was registered among animals treated with 15 and 10 mg/kg of L-DXR and 60% of the mice injected with 20 mg/kg survived throughout 90 days. F-DXR caused 100% of mortality in the groups injected with 25, 20, and 15 mg/kg and 20% mortality in the group receiving 10 mg/kg.

[3] = heart, read-out: DXR level in Heart
[4] = intestine, read-out: DXR level in Intestine
[5] = kidney, read-out: DXR level in Kidney
[6] = liver, read-out: DXR level in Liver
[7] = lungs, read-out: DXR level in Lungs
[8] = skeletal muscle, read-out: DXR level in Skeletal Muscle
[9] = spleen, read-out: DXR level in Spleen

COc1cccc2c1C(=O)c1c(O)c3c(c(O)c1C2=O)C[C@@](O)(C(=O)CO)C[C@@H]3O[C@H]1C[C@H](N)[C@H](O)[C@H](C)O1 [DXR, doxorubicin]
concentration at 1 h [1, 3]: 8400 ng/g | concentration at 5 h [1, 3]: 4200 ng/g | concentration at 24 h [1, 3]: 900 ng/g | concentration at 1 h [1, 4]: 5800 ng/g | concentration at 5 h [1, 4]: 3100 ng/g | concentration at 24 h [1, 4]: 1900 ng/g | concentration at 1 h [1, 5]: 31900 ng/g | concentration at 5 h [1, 5]: 19400 ng/g | concentration at 24 h [1, 5]: 6900 ng/g | concentration at 1 h [1, 6]: 30500 ng/g | concentration at 5 h [1, 6]: 16400 ng/g | concentration at 24 h [1, 6]: 3800 ng/g | concentration at 1 h [1, 7]: 13200 ng/g | concentration at 5 h [1, 7]: 8600 ng/g | concentration at 24 h [1, 7]: 3600 ng/g | concentration at 1 h [1, 8]: 2300 ng/g | concentration at 5 h [1, 8]: 2800 ng/g | concentration at 24 h [1, 8]: 590 ng/g | concentration at 1 h [1, 9]: 8100 ng/g | concentration at 5 h [1, 9]: 10700 ng/g | concentration at 24 h [1, 9]: 8800 ng/g | mortality at 2160 h ([2]; 10 mg/kg i.v.): 20% | mortality at 2160 h ([2]; 15 mg/kg i.v.): 100% | mortality at 2160 h ([2]; 20 mg/kg i.v.): 100% | mortality at 2160 h ([2]; 25 mg/kg i.v.): 100%
